Values quoted from earlier work in US12708665B2, “Anti-IL-1β antibody therapy in arrhythmogenic cardiomyopathy (ACM)” (Beth Israel Deaconess Medical Center, Inc., priority 2019, dated 2026).

Columns and labels:
[1] = tested on: in vitro and in vivo models of ACM; conditions: multiple in vitro and in vivo models of ACM, human iPSC-cardiac myocytes from ACM patients; cited from earlier work
[2] = tested on: patients with coronary artery disease; conditions: cited from earlier work

Compound | effect on ACM disease phenotype (arrhythmias, exercise-induced sudden death, myocyte injury and apoptosis, inflammation, contractile dysfunction) [1] | infectious complications related to immunosuppression ([2]; in vivo) | major adverse cardiac events ([2]; patients with coronary artery disease, CANTOS trial)
Cn1cc(C2=C(c3ccc(Cl)cc3Cl)C(=O)NC2=O)c2ccccc21 [SB216763] | prevent and/or reverse the full ACM disease phenotype | – | –
monoclonal antibody against IL-1β: monoclonal antibody against IL-1β used in the CANTOS trial (ref. 36) | – | not associated with significant infectious complications | significantly reduced
